We go through four compounds from ChEMBL document CHEMBL5465560, “Selectivity Literature for EUbOPEN Chemogenomic Library” (2024).

Test [1] addresses Serine/threonine-protein kinase PAK 2 (Homo sapiens) (UniProt Q13177). The note with it: at 10 µM.
The target in test [2] is T1, Ephrin type-B receptor 4 (Homo sapiens) (UniProt P54760).
T1 sequence (whole entry): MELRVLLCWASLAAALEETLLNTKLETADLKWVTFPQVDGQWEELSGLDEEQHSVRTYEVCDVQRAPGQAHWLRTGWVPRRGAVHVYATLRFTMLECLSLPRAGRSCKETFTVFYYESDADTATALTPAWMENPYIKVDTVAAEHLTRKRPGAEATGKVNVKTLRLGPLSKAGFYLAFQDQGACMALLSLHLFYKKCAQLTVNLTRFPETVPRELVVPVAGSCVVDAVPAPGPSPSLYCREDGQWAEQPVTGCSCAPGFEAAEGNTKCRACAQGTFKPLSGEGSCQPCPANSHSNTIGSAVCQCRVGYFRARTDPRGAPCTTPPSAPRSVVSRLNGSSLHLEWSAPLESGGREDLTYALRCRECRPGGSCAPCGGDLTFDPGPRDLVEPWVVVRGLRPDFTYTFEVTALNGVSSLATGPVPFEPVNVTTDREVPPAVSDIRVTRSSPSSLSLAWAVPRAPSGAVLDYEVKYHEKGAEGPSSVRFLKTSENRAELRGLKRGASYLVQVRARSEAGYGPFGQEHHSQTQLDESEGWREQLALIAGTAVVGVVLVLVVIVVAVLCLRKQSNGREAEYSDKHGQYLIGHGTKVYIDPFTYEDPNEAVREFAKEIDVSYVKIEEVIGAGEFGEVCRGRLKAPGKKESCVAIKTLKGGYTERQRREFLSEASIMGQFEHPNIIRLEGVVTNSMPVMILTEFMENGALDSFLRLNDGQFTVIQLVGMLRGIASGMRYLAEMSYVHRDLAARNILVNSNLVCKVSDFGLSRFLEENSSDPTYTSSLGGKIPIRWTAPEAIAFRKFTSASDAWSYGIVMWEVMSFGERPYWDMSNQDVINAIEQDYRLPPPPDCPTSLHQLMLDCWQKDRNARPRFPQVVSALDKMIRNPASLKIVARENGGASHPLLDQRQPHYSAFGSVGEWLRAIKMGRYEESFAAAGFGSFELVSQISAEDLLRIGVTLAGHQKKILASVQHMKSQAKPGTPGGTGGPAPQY
As to the kind of experiment: Selectivity interaction (KinomeScan (DiscoverX)) EUB0000666a EPHB4. The following applies: at 10 µM.

Test [3] deals with T2, Muscle, skeletal receptor tyrosine-protein kinase (Homo sapiens) (UniProt O15146).
T2 sequence (whole entry): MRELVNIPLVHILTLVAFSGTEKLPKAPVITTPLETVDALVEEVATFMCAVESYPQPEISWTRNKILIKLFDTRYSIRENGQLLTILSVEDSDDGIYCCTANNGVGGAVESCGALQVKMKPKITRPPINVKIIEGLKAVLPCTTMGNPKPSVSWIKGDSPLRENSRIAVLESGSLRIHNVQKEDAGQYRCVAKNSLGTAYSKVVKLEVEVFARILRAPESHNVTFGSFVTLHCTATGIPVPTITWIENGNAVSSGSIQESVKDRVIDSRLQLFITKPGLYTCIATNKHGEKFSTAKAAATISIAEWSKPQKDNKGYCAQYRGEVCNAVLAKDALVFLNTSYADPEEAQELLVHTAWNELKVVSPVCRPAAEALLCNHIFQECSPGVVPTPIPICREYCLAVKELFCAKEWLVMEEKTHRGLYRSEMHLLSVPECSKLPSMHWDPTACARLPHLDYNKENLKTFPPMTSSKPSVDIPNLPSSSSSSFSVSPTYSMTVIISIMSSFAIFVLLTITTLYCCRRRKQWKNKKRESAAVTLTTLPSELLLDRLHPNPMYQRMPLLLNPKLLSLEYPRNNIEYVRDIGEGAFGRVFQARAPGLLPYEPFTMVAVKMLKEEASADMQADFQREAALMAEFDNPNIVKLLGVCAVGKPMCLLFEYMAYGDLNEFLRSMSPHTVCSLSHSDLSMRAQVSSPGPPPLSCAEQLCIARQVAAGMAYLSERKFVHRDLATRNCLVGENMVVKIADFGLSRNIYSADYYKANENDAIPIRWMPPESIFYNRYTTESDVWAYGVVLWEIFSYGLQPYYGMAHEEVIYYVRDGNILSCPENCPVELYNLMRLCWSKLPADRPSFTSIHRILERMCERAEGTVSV
As to the kind of experiment: Selectivity interaction (KinomeScan (DiscoverX)) EUB0000666a MUSK. The note with it: at 10 µM.

Test [4] concerns the target Phosphatidylinositol 4,5-bisphosphate 3-kinase catalytic subunit beta isoform (Homo sapiens) (UniProt P42338). As to the kind of experiment: Selectivity interaction (KinomeScan (DiscoverX)) EUB0000045b PIK3CB.
Test [5] addresses T3, Serine/threonine-protein kinase PLK4 (Homo sapiens) (UniProt O00444).
T3 sequence (whole entry): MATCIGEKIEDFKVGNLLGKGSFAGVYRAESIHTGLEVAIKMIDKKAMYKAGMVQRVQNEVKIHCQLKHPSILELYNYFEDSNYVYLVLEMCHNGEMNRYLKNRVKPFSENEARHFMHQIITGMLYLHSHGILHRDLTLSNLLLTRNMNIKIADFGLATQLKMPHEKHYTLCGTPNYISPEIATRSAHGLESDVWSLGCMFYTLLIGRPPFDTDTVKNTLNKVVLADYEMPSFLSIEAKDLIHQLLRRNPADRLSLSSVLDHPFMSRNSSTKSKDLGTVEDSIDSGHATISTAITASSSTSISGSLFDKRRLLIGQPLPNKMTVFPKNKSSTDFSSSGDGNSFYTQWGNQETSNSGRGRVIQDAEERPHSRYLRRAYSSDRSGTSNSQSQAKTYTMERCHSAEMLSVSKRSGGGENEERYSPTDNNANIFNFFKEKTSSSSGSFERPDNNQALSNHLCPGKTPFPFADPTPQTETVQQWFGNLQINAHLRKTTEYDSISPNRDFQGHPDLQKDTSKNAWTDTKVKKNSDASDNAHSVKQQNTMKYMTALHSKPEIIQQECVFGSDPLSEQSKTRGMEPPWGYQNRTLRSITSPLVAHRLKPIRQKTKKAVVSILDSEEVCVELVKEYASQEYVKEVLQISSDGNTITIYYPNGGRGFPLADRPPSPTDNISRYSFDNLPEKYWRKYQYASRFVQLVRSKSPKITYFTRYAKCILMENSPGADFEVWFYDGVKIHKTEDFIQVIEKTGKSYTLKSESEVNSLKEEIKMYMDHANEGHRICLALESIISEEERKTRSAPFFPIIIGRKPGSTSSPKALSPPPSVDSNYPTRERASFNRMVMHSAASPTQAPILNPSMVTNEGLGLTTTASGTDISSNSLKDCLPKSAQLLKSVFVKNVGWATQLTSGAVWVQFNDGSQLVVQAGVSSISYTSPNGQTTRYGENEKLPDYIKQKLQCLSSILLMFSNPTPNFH
As to the kind of experiment: Selectivity interaction (KinomeScan (DiscoverX)) EUB0000618a PLK4. The following applies: at 10 µM.

Phosphatidylinositol 4,5-bisphosphate 3-kinase catalytic subunit beta isoform (Homo sapiens), sequence (P42338 whole entry, looked up, canonical isoform): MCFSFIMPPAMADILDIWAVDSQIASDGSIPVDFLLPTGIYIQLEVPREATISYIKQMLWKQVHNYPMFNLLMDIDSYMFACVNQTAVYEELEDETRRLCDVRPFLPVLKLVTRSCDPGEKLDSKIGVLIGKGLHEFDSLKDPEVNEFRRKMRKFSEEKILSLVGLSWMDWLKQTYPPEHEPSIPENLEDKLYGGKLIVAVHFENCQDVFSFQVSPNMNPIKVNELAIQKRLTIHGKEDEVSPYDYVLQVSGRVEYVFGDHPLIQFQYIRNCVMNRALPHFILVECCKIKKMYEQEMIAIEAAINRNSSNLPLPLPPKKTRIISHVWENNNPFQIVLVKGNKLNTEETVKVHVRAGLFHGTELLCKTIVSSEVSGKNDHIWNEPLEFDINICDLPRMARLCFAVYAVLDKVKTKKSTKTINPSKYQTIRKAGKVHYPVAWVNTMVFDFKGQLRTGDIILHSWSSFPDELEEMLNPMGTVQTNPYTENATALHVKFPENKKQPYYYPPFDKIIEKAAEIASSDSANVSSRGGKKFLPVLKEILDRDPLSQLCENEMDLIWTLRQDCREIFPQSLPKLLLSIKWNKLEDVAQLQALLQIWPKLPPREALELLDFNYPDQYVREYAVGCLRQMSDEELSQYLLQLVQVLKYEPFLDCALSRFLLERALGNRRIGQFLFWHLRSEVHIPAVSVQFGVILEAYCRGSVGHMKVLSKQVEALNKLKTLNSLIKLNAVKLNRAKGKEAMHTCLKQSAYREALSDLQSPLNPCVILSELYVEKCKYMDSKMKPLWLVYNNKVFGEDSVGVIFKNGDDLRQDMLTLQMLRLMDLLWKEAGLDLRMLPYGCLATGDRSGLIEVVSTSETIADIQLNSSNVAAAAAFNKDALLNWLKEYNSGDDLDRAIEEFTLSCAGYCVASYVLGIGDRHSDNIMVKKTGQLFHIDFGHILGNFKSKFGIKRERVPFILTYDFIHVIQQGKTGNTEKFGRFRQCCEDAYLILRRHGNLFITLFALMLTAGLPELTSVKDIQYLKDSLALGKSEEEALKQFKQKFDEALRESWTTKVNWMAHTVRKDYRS
Serine/threonine-protein kinase PAK 2 (Homo sapiens), sequence (Q13177 whole entry): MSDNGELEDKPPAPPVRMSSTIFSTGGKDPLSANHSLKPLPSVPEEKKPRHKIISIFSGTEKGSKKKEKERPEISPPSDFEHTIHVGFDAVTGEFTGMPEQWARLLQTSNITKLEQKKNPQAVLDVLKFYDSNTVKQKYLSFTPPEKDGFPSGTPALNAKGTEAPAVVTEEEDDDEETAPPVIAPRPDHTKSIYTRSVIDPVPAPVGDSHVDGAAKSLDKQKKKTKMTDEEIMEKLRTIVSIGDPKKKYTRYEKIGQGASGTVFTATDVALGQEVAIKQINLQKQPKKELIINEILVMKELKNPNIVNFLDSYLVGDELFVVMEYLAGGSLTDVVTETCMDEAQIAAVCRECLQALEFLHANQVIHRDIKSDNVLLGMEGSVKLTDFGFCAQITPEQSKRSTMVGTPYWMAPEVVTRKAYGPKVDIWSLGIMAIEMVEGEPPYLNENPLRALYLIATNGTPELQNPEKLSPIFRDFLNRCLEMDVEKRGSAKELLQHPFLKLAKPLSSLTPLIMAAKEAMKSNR

With `CCN(CC)CCCCNc1ncc2cc(-c3cc(OC)cc(OC)c3)c(NC(=O)NC(C)(C)C)nc2n1`, the % of control in test [1] worked out at 100%. As for `O=C(NOC[C@H](O)CO)c1ccc(F)c(F)c1Nc1ccc(I)cc1F`, the % of control worked out at 100% in test [2] and 68% in test [3]. Take `C=CC(=O)Nc1cc(-n2c(=O)ccc3cnc4ccc(-c5ccc(NS(C)(=O)=O)cc5)cc4c32)ccc1C`: the % of control in test [4] (at 1 µM) was found to be 75%; in test [4] (at 10 µM), 44%. Take `O[C@H]1CC[C@H](Nc2ncc3nc(Nc4c(F)cc(F)cc4F)n([C@H]4CCOC4)c3n2)CC1`: in test [5], the % of control was 100%.
